The values below come from patent US20240245677A1, “SELECTED COMPOUNDS FOR TARGETED DEGRADATION OF BRD9” (C4 THERAPEUTICS, INC., priority 2021, published 2024).

The structures appear in SMILES notation.

One data set deals with HepG2 cells. The data set can be described thus: HepG2 in vitro viability assay (CellTiter-Glo, 72 hours). The format is cell-based, human. The following applies: 72 hours. The protocol:
(§1) This assay assessed the general cytotoxicity of Compound 1 using the human hepatocarcinoma cell line HepG2. HepG2 cells were treated with Compound 1 for 72 hours and cellular viability was measured following the addition of CellTiter-Glo® 2.0 reagent (Promega) according to manufacturer's instructions. Agents were solubilized in DMSO and tested in the HepG2 cell line at concentrations ranging from 0.3 nM to 10 μM.
(§2) HepG2 cells were obtained from ATCC (Catalog No. HB-8065, Manassas, VA, USA) and maintained in MEM medium (Catalog No. 11095080, ThermoFisher Scientific, Waltham, MA, USA) supplemented with 10% heat inactivated fetal bovine serum (FBS) (Catalog No. 16000-044, Gibco, Grand Island, NY, USA) at 37° C. in an atmosphere of 5% CO2 in air. The cells were routinely sub-cultured to maintain cell density between 3×10^5-1.5×10^6 cells/mL, not to exceed 20 passages. Cells were washed with PBS, trypsinized for 5 min at 37° C., and resuspended in growth media. An aliquot was diluted 2× with Trypan Blue solution 0.4% (Catalog No. 15250061, ThermoFisher Scientific, Waltham, MA, USA) and cell count was determined. Cell concentration was adjusted with growth media to 1.0×10^4 cells/mL.
(§3) Compound 1 was prepared by dissolving neat compound in DMSO (Catalog No. D8418, Sigma-Aldrich, Inc., St. Louis, MO, USA) to generate 10 mM stock solution and stored at −20° C. 10 mM DMSO stock solution of Compound 1 was serially diluted (half log) in DMSO to generate 10-point dose series ([…]) in acoustic ready 384-well low dead volume microplates (Catalog No. LP-0200, Beckman Coulter Life Sciences, Indianapolis, IN, USA). Using an Echo 550 Acoustic Liquid Handler Handler (Beckman Coulter Life Sciences, Indianapolis, IN, USA), 50 nL of serially diluted compound solutions were dispensed directly in quadruplicate to each 384-well black TC-treated microplate (Catalog No. 3571, Corning, Glendale, CA, USA). 50 nL DMSO was transferred to all control wells.
(§4) 50 μL HepG2 cells suspended in growth media at 1.0×10^4 cells/mL (500 cells/well) were dispensed using a Multidrop Combi Reagent Dispenser (Catalog No. 5840300, ThermoFisher Scientific, Waltham, MA, USA) to each well of 384-well black TC-treated microplates containing quadruplicate concentration range of test compound and DMSO controls. Plates were incubated at 37° C., 5% CO2 for 72 hours. Final concentration of DMSO was 0.1% for all samples.
(§5) Additional cell plates (TO plates) were prepared by dispensing cells into a blank 384-well black TC-treated microplate to represent cytostatic controls and processed for viability detection immediately after cell dispensing.
(§6) HepG2 cell viability was determined based on quantification of ATP using CellTiter-Glo® 2.0 luminescent assay kit (Catalog No. G9243, Promega, Madison, WI, USA), which signals the presence of metabolically active cells. On Day 0 (Time 0) and Day 3 (72 hours) 25 μL CellTiter-Glo® reagent was added to each well of cell plates except the wells in column 24 and the luminescence was measured after 4 hours incubation at room temperature using an EnVision® Multilabel Reader (Catalog No. 2104-0010, Perkin Elmer Inc., Dumfries, VA, USA). Column 24 (cells without CellTiter-Glo® addition) was used as plate background or positive control (P).
(§7) Cytostatic control value (CT0) was computed from TO plate read using untreated cell signals (UT=0) and positive control signals (PT=0) as below.
(§8) Percent response of compound-treated samples at a time point T were calculated by normalizing the signal with P and DMSO treated negative (N) controls on the same microtiter plate and the CT0 control:
(§9) The Response % is thus 100% if the CellTiter-Glo® signal equals that of the DMSO treated controls (i.e., normal cell growth), 0% if it equals that of untreated cell at TO (i.e., cytostasis), and −100% if it equals the no CellTiter-Glo® reagent controls (i.e., complete cytotoxicity). […]
(Cellular ATP, detected with luciferase, serves as a proxy for viable cell number.)

Experiment in data set [1]: as above
Particulars: human, HepG2 cells, 72-hour treatment. The data set is classed as cell-based, human. As for the experimental part:
as §1, §2, §3, §4, §5, §6, §7, §8, §9

The nature of data set [2]: Crystallization by addition of anti-solvent. The data set is classed as physicochemical. Particulars: for Comments: form after seeding: add Pattern G as seeds, slurry for 5 days. As for the experimental part: Based on approximate solubility results, about 20 mg of Compound 1 free form Pattern E was dissolved in the minimal amount of good solvent. Anti-solvent was added into the obtained solutions slowly. Precipitates were collected by centrifuged. The solid part (wet cake) were investigated by XRPD.

A short description of data set [3]: Crystallization by vapor diffusion. The data set is classed as physicochemical. The protocol: Based on approximate solubility results, about 20 mg of Compound 1 free form Pattern E was dissolved in the minimal amount of good solvent in 2 mL glass vial without lid. Then the 2 mL lid less vial was placed to 8 mL vial. To the 8 mL vial was added anti-solvent. Then the 8 mL vial was capped and placed at ambient condition. Precipitates were collected by centrifugation filtration through a 0.45 μm nylon membrane filter at 14,000 rpm for 5 min. Solid parts (wet cakes) were investigated by XRPD.

As usually defined, the inhibition is the drop in the measured response relative to a control, in per cent. Usually viability stands for a read-out of living cells in per cent, often relative to untreated cells. For the molecule `COc1cc(-c2cn(C)c(=O)c(C)c2C)cc(OC)c1CN1CC[C@H](N2CCN(c3ccc(N[C@H]4CCC(=O)NC4=O)cc3F)CC2)C(F)(F)C1` [Compound 1, (S)-3-((4-(4-((S)-1-(2,6-dimethoxy-4-(1,4,5-trimethyl-6-oxo-1,6-dihydropyridin-3-yl)benzyl)-3,3-difluoropiperidin-4-yl)piperazin-1-yl)-3-fluorophenyl)amino)-piperidine-2,6-dione], the inhibition at 10 µM in the data set with HepG2 cells (Homo sapiens, HepG2, read-out: growth inhibition of HepG2 cells relative to 0.1% DMSO controls, 10 μM) came to 33.4 ± 9.9%. Moreover, in the data set on HepG2 cells (concentrations up to 3.3 μM), the “effect on viability / growth of HepG2 cells” value was “No significant effect”. Also, the viability at 72 h, 0.00032 µM in data set [1] (0.32 nM) worked out at 111%. For the same molecule, in data set [1] (1.01 nM), the viability at 72 h, 0.00101 µM was 102%. The viability at 72 h, 0.00317 µM in data set [1] (3.17 nM) came to 97.7%. For the same molecule, the viability at 72 h, 0.01 µM in data set [1] (10.0 nM) was found to be 91.6%. Moreover, the viability at 72 h, 0.0317 µM in data set [1] (31.7 nM) came out at 97.4%. Moreover, the viability at 72 h, 0.1 µM in data set [1] (100 nM) is 92.5%. In data set [1] (317 nM), the viability at 72 h, 0.317 µM is 102%. Further, the viability at 72 h, 1 µM in data set [1] (1000 nM) was 79%. The viability at 72 h, 3.161 µM in data set [1] (3161 nM) was determined as 84.6%. Further, the viability at 72 h, 9.99 µM in data set [1] (9990 nM) was determined as 66.6%. The “Comments: form after seeding” value is on record as “for 5 days: Pattern G” in data set [2] (2-MeTHF/110, Heptane/200); “Pattern F” in data set [2] (DCM/200, Heptane/400); “for 5 days: Pattern G” in data set [2] (THF/40, Heptane/160). For the same molecule, the XRPD entry in data set [2] (solvent 1,4-dioxane/200, anti-solvent Heptane/400) was “Pattern F”; in data set [2] (solvent DCM/200, anti-solvent MTBE/400) it was “Pattern F”. For the same molecule, the Comments entry in data set [2] (solvent 2-MeTHF/200, anti-solvent MTBE/200) is on record as “Oil-like sample”; in data set [3] (vapor diffusion, 1,4-Dioxane/50, anti-solvent MTBE/600) it was “Gum-like sample”; in data set [3] (vapor diffusion, 2-MeTHF/120, anti-solvent MTBE/1080), “Gum-like sample”; in data set [3] (vapor diffusion, THF/50, anti-solvent MTBE/600), “Gum-like sample”.
